Data reported in DBAASP.
Values after ≈ are worked out from the molar mass of the structure shown.

What was measured:
Assay in all cases: ≥ marks a high value that may be exact or a test limit, other limits are often not marked, values filed in µg/mL are converted to µM
Bacillus cereus AS1.126 = tested on: Bacillus cereus AS1.126
[1] = tested on: Enterobacter cloacae CGMCC 1.58
[2] = tested on: Enterococcus faecalis CGMCC 1.595
[3] = tested on: Enterococcus faecium CGMCC 1.2334
Escherichia coli AS1.349 = tested on: Escherichia coli AS1.349
[4] = tested on: Klebsiella aerogenes CGMCC 1.876
[5] = tested on: Klebsiella pneumoniae subsp. pneumoniae CGMCC 1.176
[6] = tested on: Lactococcus lactis AS1.1690
[7] = tested on: Pseudomonas aeruginosa CGMCC 1.860
[8] = tested on: Staphylococcus aureus AS1.72
[9] = tested on: Acinetobacter baumannii ATCC 19606
[10] = tested on: Bordetella bronchiseptica CUN 11844-99
[11] = tested on: Escherichia coli ATCC 25922
[12] = tested on: Pseudomonas aeruginosa ATCC 27853
[13] = tested on: Pseudomonas aeruginosa CUN 4158-02
[14] = tested on: Staphylococcus aureus ATCC 25923
[15] = tested on: Staphylococcus aureus ATCC 43300
[16] = tested on: Staphylococcus aureus CUN 3792-99
[17] = tested on: Stenotrophomonas maltophilia CUN 3998-00

MIC (Bacillus cereus AS1.126)	MIC [1]	MIC [2]	MIC [3]	MIC (Escherichia coli AS1.349)	MIC [4]	MIC [5]	MIC [6]	MIC [7]	MIC [8]	MIC [9]	MIC [10]	MIC [11]	MIC [12]	MIC [13]	MIC [14]	MIC [15]	MIC [16]	MIC [17]	SMILES
3.12 µM (≈ 4.44 µg/mL)	6.25 µM (≈ 8.9 µg/mL)	6.25 µM (≈ 8.9 µg/mL)	6.25 µM (≈ 8.9 µg/mL)	3.12 µM (≈ 4.44 µg/mL)	6.25 µM (≈ 8.9 µg/mL)	6.25 µM (≈ 8.9 µg/mL)	3.12 µM (≈ 4.44 µg/mL)	3.12 µM (≈ 4.44 µg/mL)	3.12 µM (≈ 4.44 µg/mL)										CC[C@H](C)[C@H](N)C(=O)N[C@@H](CCCCN)C(=O)N[C@@H](CCCCN)C(=O)N[C@H](C(=O)N[C@@H](CC(C)C)C(=O)N[C@@H](CO)C(=O)N[C@@H](CCCCN)C(=O)N[C@H](C(=O)N[C@@H](CCCCN)C(=O)N[C@@H](CCCCN)C(=O)N[C@@H](CC(C)C)C(=O)N[C@@H](CC(C)C)C(N)=O)[C@@H](C)CC)[C@@H](C)CC [IKKILSKIKKLL]
										23.1 µM (≈ 64 µg/mL)	11.6 µM (≈ 32 µg/mL)	46.2 µM (≈ 128 µg/mL)	46.2 µM (≈ 128 µg/mL)	≥ 92.4 µM	46.2 µM (≈ 128 µg/mL)	46.2 µM (≈ 128 µg/mL)	≥ 370 µM	≥ 185 µM	NCCCC[C@H](NC(=O)CNC(=O)[C@H](CCCCN)NC(=O)[C@H](Cc1ccccc1)NC(=O)[C@H](CCCCN)NC(=O)[C@H](Cc1c[nH]c2ccccc12)NC(=O)[C@H](CCCN=C(N)N)NC(=O)[C@H](Cc1ccccc1)NC(=O)[C@H](CCCN=C(N)N)NC(=O)[C@H](CCCN=C(N)N)NC(=O)[C@H](Cc1ccc(O)cc1)NC(=O)[C@H](CCCCN)NC(=O)[C@H](CCCCN)NC(=O)[C@H](CS)NC(=O)CN)C(=O)N[C@@H](Cc1ccccc1)C(=O)N[C@@H](Cc1c[nH]c2ccccc12)C(=O)N[C@@H](Cc1ccccc1)C(=O)N[C@@H](Cc1c[nH]c2ccccc12)C(=O)NCC(=O)NCC(N)=O [GCKKYRRFRWKFKGKFWFWGG]
										24.1 µM (≈ 64 µg/mL)	6.02 µM (≈ 16 µg/mL)	385 µM (≈ 1020 µg/mL)	96.3 µM (≈ 256 µg/mL)	≥ 96.3 µM	385 µM (≈ 1020 µg/mL)	24.1 µM (≈ 64 µg/mL)	12 µM (≈ 32 µg/mL)	≥ 385 µM	CC(C)C[C@H](NC(=O)[C@H](Cc1c[nH]c2ccccc12)NC(=O)[C@H](CC(C)C)NC(=O)[C@H](CCCCN)NC(=O)[C@H](CCC(N)=O)NC(=O)[C@H](CCCCN)NC(=O)[C@H](CS)NC(=O)[C@H](CCCCN)NC(=O)[C@H](CC(C)C)NC(=O)[C@H](CCCCN)NC(=O)[C@H](Cc1ccccc1)NC(=O)[C@H](CCCNC(=N)N)NC(=O)[C@H](CCCNC(=N)N)NC(=O)[C@H](Cc1ccccc1)NC(=O)[C@H](CCCCN)NC(=O)[C@H](CCCCN)NC(=O)[C@H](CS)NC(=O)CN)C(=O)N[C@@H](Cc1c[nH]c2ccccc12)C(=O)N[C@@H](CS)C(=O)NCC(=O)O [GCKKFRRFKLKCKQKLWLWCG]
